The results in this text go back to EPA's ToxValDB 9.5 (doi:10.2903/j.efsa.2010.1406).

The conditions of data set [1]: subchronic; duration: 90 days.
Where [2] appears, read: subchronic, duration: 90 days, oral, diet.

`CSC(=O)c1ccco1` [2-Furancarbothioic acid, S-methyl ester] registered a no-observed-adverse-effect level (NOAEL) in data set [1] of 6.7 mg/kg-day. The molecule `CC(=O)CC(C)SCc1ccco1` (centres undefined) [4-{[(Furan-2-yl)methyl]sulfanyl}pentan-2-one] returned an NOAEL with Rattus norvegicus (setting [2]) of 3.76 mg/kg-day. The molecule `Cc1occc1SSSSc1ccoc1C` [Bis(2-methyl-3-furyl) tetrasulfide] had an NOEL in the data set with Rattus norvegicus (subchronic, duration: 90 days) of 0.56 mg/kg-day. With `CC(=O)SC1=C(C)OCC1` [2-Methyl-3-thioacetoxy-4,5-dihydrofuran], in the data set on Rattus norvegicus (chronic, duration: 1 years, oral, diet), the NOEL turned out to be 8.3 mg/kg-day. In data set [1], `CCSC(C)=O` [S-Ethyl thiolacetate] displayed an NOAEL of 6.7 mg/kg-day. `Cc1occc1SSc1ccoc1C` [Bis(2-methyl-3-furyl)disulfide] gave an NOEL in the data set with Rattus norvegicus (setting [2]) of 0.45 mg/kg-day. Molecule `Cc1cc(SC(=O)CC(C)C)c(C)o1` [2,5-Dimethyl-3-thioisovalerylfuran] came in with an NOEL in the data set on Rattus norvegicus (subchronic, duration: 90 days) of 0.73 mg/kg-day.

The molecule `CCOC(=O)CCSCc1ccco1` [Ethyl 3-(furfurylthio)propionate] displayed an NOEL with Rattus norvegicus (subchronic, duration: 90 days) of 17 mg/kg-day. Regarding `Cc1cc(SSc2cc(C)oc2C)c(C)o1` [Furan, 3,3'-dithiobis[2,5-dimethyl-], the NOEL with Rattus norvegicus (setting [2]) is 0.45 mg/kg-day.
